Results: PMC12053997, “D-enantiomeric antibiofilm peptides effective against anaerobic Cutibacterium acnes biofilm” (Microbiology Spectrum, 2025)
Values after ≈ are worked out from the molar mass of the structure shown. Like-named read-outs stand apart in the source and are kept apart here. Where a SMILES comes first, the peptide text is derived from it. Where no end group is shown, it is not given here. [ ]: non-standard residue; d: D form.

Legend:
[1] = test system: C. acnes strains (C2, C5, PJI2, PJI8); experiment: microbe, parasite or virus in culture
Experimental: (§1) C. acnes strains were isolated on Columbia agar containing 5% sheep blood (BioRad, Hercules, California, USA) and cultivated in Brain Heart Infusion (BHI) broth (BioRad, Hercules, California, USA) for 5 days, under anaerobic conditions using the GenBox system (Biomérieux, Marcy l’Etoile, France), at 37°C. For all assays, one colony of isolated C. acnes strains was inoculated in a 1.5 mL vial containing 1.5 mL of BHI. After 5–6 days of incubation (stationary phase reached after 4 days) at 37°C, the absorbance (at 600 nm) of the bacterial culture was adjusted to 1. The bacterial suspension was then diluted in BHI broth at 1/100 (OD: 0.01) and 1 mL of this suspension was inoculated in each well of 24- or 48-well plates.
(§2) Peptides were added to a 48-well plate at the desired concentrations in BHI medium and diluted bacteria were inoculated as described in the “Bacterial Strain Culture” section. Plates were incubated at 37°C, under anaerobic conditions using the GenBox system, for 5–6 days. The effect of the peptide on planktonic growth was determined by measuring the MIC which was defined as the concentration in the well containing the minimal amount of compound that leads to the absence of visible bacterial growth, according to Wiegand et al. ([38]). […] Finally, 48-well plates containing cultures with or without peptides were washed three times with water to remove unattached bacteria. Adhered bacteria were stained with 1 mL of 0.2% crystal violet for 20 min, then washed with water, and crystal violet was extracted with 95% ethanol (vol/vol). The quantity of biofilm (biomass) was analyzed by measuring the absorbance of the crystal violet suspension at 595 nm using the SpectroStar nano spectrophotometer (BMG Labtech, Ortenberg, Germany). The Minimal Biofilm Inhibition Concentration (MBIC) was defined as the concentration in the well containing the minimal quantity of peptide where the crystal violet absorbance, corrected by the blank, was null. Experiments were performed three independent times in technical duplicate for each strain.

[2] = test system: C. acnes strains (C2, C5, PJI2, PJI8)
Experimental: as §1, §2

## VRLIVAVRIWRR-NH2 [Peptide 1018, reference compound]
[1]; strain C2, BHI, anaerobic, 37°C, 5–6 days, n = 3 (n = 2 for 1018, AB008-D)
  MIC: >64 µg/mL
[1]; strain C2, no colonies on blood agar after 5–6 days anaerobic, n = 3 (n = 2 for 1018, AB008-D)
  MBC: >64 µg/mL
[1]; strain C5, BHI, anaerobic, 37°C, 5–6 days, n = 3 (n = 2 for 1018, AB008-D)
  MIC: >64 µg/mL
[1]; strain C5, no colonies on blood agar after 5–6 days anaerobic, n = 3 (n = 2 for 1018, AB008-D)
  MBC: >64 µg/mL
[1]; strain PJI2, BHI, anaerobic, 37°C, 5–6 days, n = 3 (n = 2 for 1018, AB008-D)
  MIC: >64 µg/mL
[1]; strain PJI2, no colonies on blood agar after 5–6 days anaerobic, n = 3 (n = 2 for 1018, AB008-D)
  MBC: >64 µg/mL
[1]; strain PJI8, BHI, anaerobic, 37°C, 5–6 days, n = 3 (n = 2 for 1018, AB008-D)
  MIC: >64 µg/mL
[1]; strain PJI8, no colonies on blood agar after 5–6 days anaerobic, n = 3 (n = 2 for 1018, AB008-D)
  MBC: >64 µg/mL
[2]; strain C2, crystal violet absorbance 595 nm null, n = 3 (n = 2 for 1018, AB008-D)
  MBIC: 32 µg/mL
[2]; strain C5, crystal violet absorbance 595 nm null, n = 3 (n = 2 for 1018, AB008-D)
  MBIC: 32 µg/mL
[2]; strain PJI2, crystal violet absorbance 595 nm null, n = 3 (n = 2 for 1018, AB008-D)
  MBIC: 32 µg/mL
[2]; strain PJI8, crystal violet absorbance 595 nm null, n = 3 (n = 2 for 1018, AB008-D)
  MBIC: 32 µg/mL

## CC[C@@H](C)[C@@H](NC(=O)[C@@H](CCCNC(=N)N)NC(=O)[C@H](N)CCCCN)C(=O)N[C@H](CCCNC(=N)N)C(=O)N[C@H](Cc1c[nH]c2ccccc12)C(=O)N[C@@H](C(=O)N[C@@H](C(=O)N[C@H](CC(C)C)C(=O)N[C@H](CCCNC(=N)N)C(=O)N[C@@H](C(=O)N[C@@H](C(=O)N[C@H](CCCNC(=N)N)C(N)=O)[C@H](C)CC)C(C)C)[C@H](C)CC)C(C)C [AB101-D] (H-[dK][dR][dI][dR][dW][dV][dI][dL][dR][dV][dI][dR]-NH2)
[1]; strains (C2, C5, PJI2, PJI8)
  MICs: 16 to 32 µg/mL

## CC[C@@H](C)[C@@H](NC(=O)[C@@H](C)NC(=O)[C@@H](CCCNC(=N)N)NC(=O)[C@@H](Cc1c[nH]c2ccccc12)NC(=O)[C@@H](CCC(N)=O)NC(=O)[C@H](N)C(C)C)C(=O)N[C@H](CCCNC(=N)N)C(=O)N[C@@H](C(=O)N[C@H](CCCNC(=N)N)C(=O)N[C@@H](C(=O)N[C@@H](C(=O)N[C@H](CCCNC(=N)N)C(N)=O)[C@H](C)CC)C(C)C)C(C)C [DJK5, reference compound] (H-[dV][dQ][dW][dR][dA][dI][dR][dV][dR][dV][dI][dR]-NH2)
[1]; strains (C2, C5, PJI2, PJI8)
  MICs: 16 to 32 µg/mL

## CC[C@@H](C)[C@@H](NC(=O)[C@@H](CCCNC(=N)N)NC(=O)[C@@H](CCCNC(=N)N)NC(=O)[C@@H](Cc1c[nH]c2ccccc12)NC(=O)[C@@H](CCC(N)=O)NC(=O)[C@H](N)C(C)C)C(=O)N[C@@H](C(=O)N[C@@H](C(=O)N[C@H](CCCNC(=N)N)C(=O)N[C@@H](C(=O)N[C@@H](C(=O)N[C@H](CCCNC(=N)N)C(N)=O)[C@H](C)CC)C(C)C)C(C)C)[C@H](C)CC [AB008-D] (H-[dV][dQ][dW][dR][dR][dI][dI][dV][dR][dV][dI][dR]-NH2)
[1]; strains (C2, C5, PJI2, PJI8)
  MBC: >64 µg/mL
[2]; strains (C2, C5, PJI2, PJI8)
  MBIC: 32 µg/mL

## CC[C@@H](C)[C@@H](NC(=O)[C@@H](CCCNC(=N)N)NC(=O)[C@@H](CCCNC(=N)N)NC(=O)[C@@H](Cc1c[nH]c2ccccc12)NC(=O)[C@@H](CCC(N)=O)NC(=O)[C@H](N)C(C)C)C(=O)N[C@H](CC(C)C)C(=O)N[C@@H](C(=O)N[C@H](CCCNC(=N)N)C(=O)N[C@@H](C(=O)N[C@@H](C(=O)N[C@H](CCCNC(=N)N)C(N)=O)[C@H](C)CC)C(C)C)C(C)C [AB009-D] (H-[dV][dQ][dW][dR][dR][dI][dL][dV][dR][dV][dI][dR]-NH2)
[1]; strains (C2, C5, PJI2, PJI8)
  MICs: 16 to 32 µg/mL

## CO[C@H]1/C=C/O[C@@]2(C)Oc3c(C)c(O)c4c(O)c(c(/C=N/N5CCN(C)CC5)c(O)c4c3C2=O)NC(=O)/C(C)=C\C=C\[C@H](C)[C@H](O)[C@@H](C)[C@@H](O)[C@@H](C)[C@H](OC(C)=O)[C@@H]1C [Rifampicin, rifampicin, reference compound]
[1]; Cutibacterium acnes
  MIC: 0.008 µg/mL (≈ 9.72 nM)
[1]; Cutibacterium acnes, strain C2, n=3
  MBC: > 0.064 µg/mL
[1]; Cutibacterium acnes, strain C5, n=3
  MBC: > 0.064 µg/mL
[1]; Cutibacterium acnes, strain PJI2, n=3
  MBC: > 0.064 µg/mL
[1]; Cutibacterium acnes, strain PJI8, n=3
  MBC: 0.008 to 0.016 µg/mL (≈ 9.72 to 19.4 nM)
[1]; strain C5, n=3
  MIC: 0.008 µg/mL (≈ 9.72 nM)
[1]; strain PJI2, n=3
  MIC: 0.008 µg/mL (≈ 9.72 nM)
[1]; strain PJI8, n=3
  MIC: 0.008 µg/mL (≈ 9.72 nM)
[2]; strain C2, n=3
  MBIC: 0.002 to 0.004 µg/mL
[2]; strain C5, n=3
  MBIC: 0.008 µg/mL
[2]; strain PJI2, n=3
  MBIC: 0.004 to 0.008 µg/mL
[2]; strain PJI8, n=3
  MBIC: 0.008 µg/mL
